Experimental data from the NIST ThermoML archive (doi:10.1016/j.fluid.2008.09.026).
Numbers after ± are expanded uncertainties. Each block holds one molecule with its values, some of them ahead of it.

Settings: Liquid, Ebulliometric method (Recirculating still)

SMILES: CCCCCCC [heptane]
- vapor or sublimation pressure (354.72 K): 60 ± 0.1 kPa
- vapor or sublimation pressure (363.74 K): 80 ± 1 kPa
- vapor or sublimation pressure (371.2 K): 100 ± 0.1 kPa

- vapor or sublimation pressure (326.11 K): 60 ± 0.1 kPa
- vapor or sublimation pressure (334.61 K): 80 ± 0.1 kPa
- vapor or sublimation pressure (341.48 K): 100 ± 0.1 kPa
SMILES: CCCCCC [hexane]

- vapor or sublimation pressure (398.12 K): 60 ± 0.1 kPa
- vapor or sublimation pressure (407.13 K): 80 ± 0.1 kPa
- vapor or sublimation pressure (414.21 K): 100 ± 0.1 kPa
SMILES: CC(C)OCCO [2-isopropoxyethanol]
